Key:
[1] = target: T1, human recombinant 5-HT2C receptor (Homo sapiens, UniProt P28335); assay: Binding affinity for serotonin 5-HT2C receptor ([3H]Mesulergine); details: CHO-K1 membranes, 1.3 nM [3H]Mesulergine
T1 construct: purchased PerkinElmer
T1 sequence (P28335 33-458): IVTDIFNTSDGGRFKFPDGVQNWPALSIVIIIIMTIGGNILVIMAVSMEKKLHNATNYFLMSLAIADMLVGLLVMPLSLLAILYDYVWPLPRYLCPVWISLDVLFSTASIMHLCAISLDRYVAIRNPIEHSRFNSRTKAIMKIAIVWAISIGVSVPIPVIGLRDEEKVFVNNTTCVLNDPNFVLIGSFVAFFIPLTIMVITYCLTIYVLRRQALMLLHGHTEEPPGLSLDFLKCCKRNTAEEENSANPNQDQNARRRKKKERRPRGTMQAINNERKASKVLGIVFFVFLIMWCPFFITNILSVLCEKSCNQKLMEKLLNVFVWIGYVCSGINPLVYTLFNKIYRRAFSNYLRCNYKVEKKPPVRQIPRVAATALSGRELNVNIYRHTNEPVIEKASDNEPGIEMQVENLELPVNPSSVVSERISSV
In short: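 Competition binding with [3H]mesulergine; nonspecific binding defined with 100 uM mianserin. Incubation 60 min at 27, stopped by rapid filtration onto glass fiber filters presoaked in 0.5% PEI.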

mice = assay: Anti-depressants activity in forced swimming test; assay type: in vivo; details: 100 mg/kg po, 60 min before testing, hydrochloride
Description: To evaluate the anti-depressants activity of the compounds, the inhibitory effects on immobility in forced swimming test in mice were measured according to the methods described by Porsolt et al. [Porsolt R D et al., Eur J Pharmacol. 1978, 51, 291-294].
Each mouse was placed in a 25-cm glass cylinder (10 cm diameter) containing 15 cm of water maintained at 22±1 , and was forced to swim for 10 min. Twenty-four hours later, the mouse was replaced into the cylinder and the total duration of immobility was recorded during the last 5 min of the 6-min testing period. Mice are judged immobile when they float in an upright position and make only small movements to keep their head above water. Test drugs were suspended in 3% Tween 80 solution, and administered orally (po) 60 min before the testing.

[2] = target: T2, human serotonin transporter (Homo sapiens, UniProt P31645); assay: Binding affinity for serotonin transporter ([3H]Imipramine); details: HEK-293 membranes, 2 nM [3H]Imipramine
T2 construct: purchased PerkinElmer; host or cells: HEK-293
In short: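 Membranes from HEK-293 cells expressing human serotonin transporter (5 ug/well) incubated with compound and 2 nM [3H]imipramine in 50 mM Tris-HCl pH 7.4, 120 mM NaCl, 5 mM KCl, 30 min at 27. Bound ligand separated by filtration onto glass fiber filters presoaked in 0.5% PEI, washed with ice-cold Tris-HCl/0.9% NaCl.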

[3] = target: T3, human recombinant serotonin 5-HT2A receptor (Homo sapiens, UniProt P28223); assay: Binding affinity for serotonin 5-HT2A receptor ([3H]Ketanserin); details: CHO-K1 expressed receptor, 1 nM [3H]Ketanserin
T3 construct: purchased PerkinElmer Life and Analytical Sciences, USA; host or cells: CHO-K1
In short: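 Membranes from CHO-K1 cells expressing recombinant receptor (5 ug/well) incubated 60 min at 27 with 1 nM [3H]ketanserin in 50 mM Tris-HCl pH 7.4, 4 mM CaCl2, 0.1% ascorbic acid; mianserin 20 uM defined nonspecific binding. Filtration and counting; IC50 by nonlinear regression over 7-8 concentrations in duplicate.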

T2 sequence (P31645 whole entry): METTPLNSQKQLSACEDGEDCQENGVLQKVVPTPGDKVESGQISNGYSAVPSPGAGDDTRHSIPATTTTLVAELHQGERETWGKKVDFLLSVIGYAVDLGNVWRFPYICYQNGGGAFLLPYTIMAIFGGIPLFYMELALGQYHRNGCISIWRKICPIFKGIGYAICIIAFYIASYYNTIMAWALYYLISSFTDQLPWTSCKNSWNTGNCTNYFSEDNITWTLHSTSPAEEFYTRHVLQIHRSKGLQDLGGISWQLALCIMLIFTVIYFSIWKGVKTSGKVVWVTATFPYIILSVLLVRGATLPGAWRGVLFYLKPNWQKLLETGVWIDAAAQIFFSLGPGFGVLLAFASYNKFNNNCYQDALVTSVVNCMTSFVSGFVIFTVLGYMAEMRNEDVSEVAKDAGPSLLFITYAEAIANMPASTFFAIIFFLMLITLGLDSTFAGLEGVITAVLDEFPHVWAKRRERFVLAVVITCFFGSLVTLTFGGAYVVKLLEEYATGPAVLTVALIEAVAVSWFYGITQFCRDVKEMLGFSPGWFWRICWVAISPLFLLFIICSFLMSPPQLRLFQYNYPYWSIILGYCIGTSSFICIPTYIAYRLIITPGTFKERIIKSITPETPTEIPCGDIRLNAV
T3 sequence (P28223 whole entry): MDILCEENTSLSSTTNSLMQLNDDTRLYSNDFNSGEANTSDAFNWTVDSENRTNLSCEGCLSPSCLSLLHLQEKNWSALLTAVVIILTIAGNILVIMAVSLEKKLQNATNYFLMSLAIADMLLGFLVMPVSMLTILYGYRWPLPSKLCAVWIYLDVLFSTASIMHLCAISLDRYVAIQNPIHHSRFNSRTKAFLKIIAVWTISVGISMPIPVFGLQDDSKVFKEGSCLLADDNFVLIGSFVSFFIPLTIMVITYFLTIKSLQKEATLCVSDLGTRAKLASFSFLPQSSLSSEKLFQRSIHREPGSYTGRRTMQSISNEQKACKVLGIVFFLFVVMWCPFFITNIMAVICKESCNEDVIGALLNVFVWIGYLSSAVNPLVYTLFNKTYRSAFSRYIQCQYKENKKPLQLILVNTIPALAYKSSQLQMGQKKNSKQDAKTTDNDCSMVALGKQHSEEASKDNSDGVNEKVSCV

Structure (SMILES)	IC50 [1]	immobility in forced swimming test (mice)	IC50 [2]	IC50 [3]
Cc1[nH]c(-c2ccccc2)cc1C(=O)NCCN1CCN(c2cccc(Cl)c2Cl)CC1.Cl [Example 48, N-(2-(4-(2,3-dichlorophenyl)piperazin-1-yl)ethyl)-2-methyl-5-phenyl-1H-pyrrole-3-carboxamide hydrochloride]	156 nM	26.1%	57 nM	175 nM
Cc1c(C(=O)NCCCN2CCN(c3ccc(F)cc3)CC2)cc(-c2ccccc2)n1C [Example 155, N-(3-(4-(4-Fluorophenyl)piperazin-1-yl)propyl)-1,2-dimethyl-5-phenyl-1H-pyrrole-3-carboxamide]	493 nM	–	183 nM	22 nM
Cc1c(C(=O)NCCCN2CCN(c3cc(Cl)ccc3Cl)CC2)cc(-c2ccccc2)n1C [Example 156, N-(3-(4-(2,5-Ddichlorophenyl)piperazin-1-yl)propyl)-1,2-dimethyl-5-phenyl-1H-pyrrole-3-carboxamide]	806 nM	–	134 nM	585 nM
COc1cccc(N2CCN(CCCNC(=O)c3cc(-c4ccccc4)n(C)c3C)CC2)c1OC [Example 158, N-(3-(4-(2,3-dimethoxyphenyl)piperazin-1-yl)propyl)-1,2-dimethyl-5-phenyl-1H-pyrrole-3-carboxamide]	782 nM	–	1260 nM	666 nM
CCCn1c(-c2ccccc2)cc(C(=O)NCCCN2CCN(c3cccc(OC)c3OC)CC2)c1C [Example 159, N-(3-(4-(2,3-dimethoxyphenyl)piperazin-1-yl)propyl)-2-methyl-5-phenyl-1-propyl-1H-pyrrole-3-carboxamide]	977 nM	–	1980 nM	874 nM
Cc1cc(C(=O)NCCCN2CCN(c3cccc(Cl)c3Cl)CC2)c(C)n1-c1ccccc1 [Example 170, N-(3-(4-(2,3-dichlorophenyl)piperazin-1-yl)propyl)-2,5-dimethyl-1-phenyl-1H-pyrrole-3-carboxamide]	98 nM	–	20 nM	132 nM
Cc1c(Cl)cccc1N1CCN(CCCNC(=O)c2cc(C)n(-c3ccccc3)c2C)CC1 [Example 176, N-(3-(4-(3-chloro-2-methylphenyl)piperazin-1-yl)propyl)-2,5-dimethyl-1-phenyl-1H-pyrrole-3-carboxamide]	127 nM	–	15 nM	170 nM

— US8895558B2, “Arylpiperazine-containing pyrrole 3-carboxamide derivatives for treating depressive disorders” (Green Cross Corporation, priority 2008, dated 2014)
